Reference: ChEMBL document CHEMBL3351595, “Cyclic acyl guanidines bearing carbamate moieties allow potent and dirigible cholinesterase inhibition of either acetyl- or butyrylcholinesterase” (Bioorg Med Chem, 2014)
Calls of active or inactive are those of the source. No cut-off for these calls is given here.

What was measured:
Acetylcholinesterase = Acetylcholinesterase (Electrophorus electricus, UniProt O42275); experiment: Inhibition of electric eel AChE using ATC iodide substrate by DTNB based assay
Sequence of Acetylcholinesterase (O42275 whole entry): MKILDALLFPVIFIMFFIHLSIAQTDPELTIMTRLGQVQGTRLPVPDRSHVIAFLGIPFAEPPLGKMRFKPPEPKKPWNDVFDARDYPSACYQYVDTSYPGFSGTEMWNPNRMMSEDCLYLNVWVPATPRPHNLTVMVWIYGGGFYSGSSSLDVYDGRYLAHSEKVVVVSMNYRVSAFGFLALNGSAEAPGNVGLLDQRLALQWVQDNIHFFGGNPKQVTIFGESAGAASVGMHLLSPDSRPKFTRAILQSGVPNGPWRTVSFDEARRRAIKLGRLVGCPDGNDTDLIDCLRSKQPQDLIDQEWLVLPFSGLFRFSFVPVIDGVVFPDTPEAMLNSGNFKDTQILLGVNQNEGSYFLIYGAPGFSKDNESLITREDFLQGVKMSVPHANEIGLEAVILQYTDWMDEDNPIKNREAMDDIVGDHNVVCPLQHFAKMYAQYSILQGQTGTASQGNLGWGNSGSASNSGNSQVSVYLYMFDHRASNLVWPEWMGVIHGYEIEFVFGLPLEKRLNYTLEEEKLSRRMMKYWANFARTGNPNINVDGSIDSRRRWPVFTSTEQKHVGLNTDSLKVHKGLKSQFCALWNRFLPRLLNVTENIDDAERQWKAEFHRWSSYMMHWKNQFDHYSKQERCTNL

[1] = Selectivity index, ratio of IC50 for electric eel AChE to IC50 for quine serum BChE
HT-22 [2] = experiment: Neuroprotective activity in mouse HT22 cells assessed as reduction in glutamate-induced cytotoxicity at 1 to 25 uM by MTT assay; type: functional, cell-based
HT-22 [3] = experiment: Toxicity against mouse HT22 cells assessed as reduction in cell viability at 25 uM by MTT assay; type: cell-based; conditions: ht-22, 25 µM
[4] = target: Cholinesterase (Equus caballus) (UniProt P81908); experiment: Inhibition of equine serum BChE at 100 uM using ATC iodide substrate by DTNB based assay
Sequence of Cholinesterase (Equus caballus) (P81908 whole entry): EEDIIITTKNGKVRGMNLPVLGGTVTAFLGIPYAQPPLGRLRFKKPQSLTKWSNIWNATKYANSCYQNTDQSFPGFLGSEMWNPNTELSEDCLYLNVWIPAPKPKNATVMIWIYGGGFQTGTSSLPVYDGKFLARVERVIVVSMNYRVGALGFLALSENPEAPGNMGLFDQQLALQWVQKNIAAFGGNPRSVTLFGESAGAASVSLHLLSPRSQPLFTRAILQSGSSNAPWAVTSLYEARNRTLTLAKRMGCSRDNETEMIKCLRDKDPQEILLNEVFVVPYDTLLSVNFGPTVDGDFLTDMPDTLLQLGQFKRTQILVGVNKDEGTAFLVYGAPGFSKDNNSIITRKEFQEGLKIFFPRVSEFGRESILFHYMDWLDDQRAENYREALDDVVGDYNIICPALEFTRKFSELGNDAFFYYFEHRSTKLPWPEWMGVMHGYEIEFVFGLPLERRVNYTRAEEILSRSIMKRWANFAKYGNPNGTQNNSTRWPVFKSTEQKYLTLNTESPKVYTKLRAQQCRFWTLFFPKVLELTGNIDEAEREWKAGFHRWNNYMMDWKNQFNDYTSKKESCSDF

[5] = target: Cholinesterase (Equus caballus) (UniProt P81908); experiment: Inhibition of equine serum BChE at 50 uM using ATC iodide substrate by DTNB based assay
Cholinesterase = Cholinesterase (Equus caballus, UniProt P81908); experiment: Inhibition of equine serum BChE using ATC iodide substrate by DTNB based assay
Sequence of Cholinesterase (P81908 whole entry): as above

HT-22 [6] = experiment: Toxicity against mouse HT22 cells assessed as reduction in cell viability at 1 to 25 uM by MTT assay; type: cell-based; conditions: ht-22, 25 µM
[7] = Antioxidant activity assessed as AAPH-induced peroxyl radicals scavenging activity by measuring Trolox equivalents by oxygen radical absorbance capacity-fluorescein assay; type: physicochemical
HT-22 [8] = experiment: Neuroprotective activity in mouse HT22 cells assessed as reduction in glutamate-induced cytotoxicity at 5 to 25 uM by MTT assay; type: functional, cell-based
[9] = target: Acetylcholinesterase (Electrophorus electricus) (UniProt O42275); experiment: Inhibition of electric eel AChE at 50 uM using ATC iodide substrate by DTNB based assay
Sequence of Acetylcholinesterase (Electrophorus electricus) (O42275 24-633 limits assumed): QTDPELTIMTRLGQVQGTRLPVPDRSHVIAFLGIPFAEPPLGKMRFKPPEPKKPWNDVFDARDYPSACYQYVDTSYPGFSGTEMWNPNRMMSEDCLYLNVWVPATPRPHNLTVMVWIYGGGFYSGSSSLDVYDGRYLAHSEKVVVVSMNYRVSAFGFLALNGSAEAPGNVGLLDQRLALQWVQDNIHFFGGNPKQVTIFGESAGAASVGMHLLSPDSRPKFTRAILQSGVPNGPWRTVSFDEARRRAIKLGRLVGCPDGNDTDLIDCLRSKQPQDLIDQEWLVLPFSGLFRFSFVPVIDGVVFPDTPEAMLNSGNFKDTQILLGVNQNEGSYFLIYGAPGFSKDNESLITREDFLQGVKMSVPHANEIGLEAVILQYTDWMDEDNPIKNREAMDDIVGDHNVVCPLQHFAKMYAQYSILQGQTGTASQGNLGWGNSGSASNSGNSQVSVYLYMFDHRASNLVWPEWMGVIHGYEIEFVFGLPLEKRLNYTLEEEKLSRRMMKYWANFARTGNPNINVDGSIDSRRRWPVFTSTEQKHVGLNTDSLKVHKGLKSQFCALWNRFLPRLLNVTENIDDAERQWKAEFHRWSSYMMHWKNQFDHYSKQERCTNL

[10] = target: Cholinesterase (Equus caballus) (UniProt P81908); experiment: Time dependent inhibition of equine serum BChE at 25 to 250 nM; conditions: TDE = time-dependent effect
[11] = target: Cholinesterase (Equus caballus) (UniProt P81908); experiment: Inhibition of equine serum BChE assessed as rate constant of carbamoyl-enzyme formation pre-incubated for 80 mins by enzyme kinetic assay
[12] = target: Acetylcholinesterase (Electrophorus electricus) (UniProt O42275); experiment: Inhibition of electric eel AChE assessed as stability constant of inhibitor-enzyme complex pre-incubated for 2 to 20 mins by enzyme kinetic assay
[13] = target: Acetylcholinesterase (Homo sapiens) (UniProt P22303); experiment: Inhibition of human erythrocyte AChE pre-incubated for 20 mins by enzyme kinetic assay
Sequence of Acetylcholinesterase (Homo sapiens) (P22303 whole entry): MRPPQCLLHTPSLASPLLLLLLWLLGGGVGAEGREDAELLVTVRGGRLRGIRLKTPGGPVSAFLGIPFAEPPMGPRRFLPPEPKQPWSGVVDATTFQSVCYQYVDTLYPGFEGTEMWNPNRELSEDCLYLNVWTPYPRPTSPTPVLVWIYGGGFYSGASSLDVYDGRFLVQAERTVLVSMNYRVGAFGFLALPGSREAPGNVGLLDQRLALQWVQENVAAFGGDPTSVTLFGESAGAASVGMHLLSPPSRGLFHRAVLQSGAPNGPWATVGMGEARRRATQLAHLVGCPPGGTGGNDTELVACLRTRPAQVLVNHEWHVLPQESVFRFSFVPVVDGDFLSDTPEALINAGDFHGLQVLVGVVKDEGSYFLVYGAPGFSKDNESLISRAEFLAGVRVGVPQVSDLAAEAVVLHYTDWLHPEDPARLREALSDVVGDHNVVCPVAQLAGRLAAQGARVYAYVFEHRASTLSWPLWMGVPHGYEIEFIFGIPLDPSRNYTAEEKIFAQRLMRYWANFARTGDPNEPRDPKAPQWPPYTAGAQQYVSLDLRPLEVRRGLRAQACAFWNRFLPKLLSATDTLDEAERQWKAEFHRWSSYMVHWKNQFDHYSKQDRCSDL

[14] = target: Acetylcholinesterase (Homo sapiens) (UniProt P22303); experiment: Inhibition of human erythrocyte AChE pre-incubated for 2 mins by enzyme kinetic assay
[15] = target: Acetylcholinesterase (Electrophorus electricus) (UniProt O42275); experiment: Inhibition of electric eel AChE assessed as rate constant of carbamoyl-enzyme formation pre-incubated for 2 to 20 mins by enzyme kinetic assay
HT-22 [16] = experiment: Neuroprotective activity in mouse HT22 cells assessed as reduction in glutamate-induced cytotoxicity at 25 uM by MTT assay; type: functional, cell-based
HT-22 [17] = experiment: Neuroprotective activity in mouse HT22 cells assessed as reduction in glutamate-induced cytotoxicity at 10 to 25 uM by MTT assay; type: functional, cell-based
[18] = target: Cholinesterase (Equus caballus) (UniProt P81908); experiment: Time dependent inhibition of equine serum BChE at 5 to 100 nM; conditions: TDE = time-dependent effect
[19] = target: Cholinesterase (Equus caballus) (UniProt P81908); experiment: Inhibition of equine serum BChE assessed as rate constant of carbamoyl-enzyme formation pre-incubated for 2 to 20 mins by enzyme kinetic assay
[20] = target: Cholinesterase (Equus caballus) (UniProt P81908); experiment: Inhibition of equine serum BChE assessed as stability constant of inhibitor-enzyme complex pre-incubated for 2 to 20 mins by enzyme kinetic assay
HT-22 [21] = experiment: Toxicity against mouse HT22 cells assessed as reduction in cell viability at 5 uM by MTT assay; type: cell-based; conditions: ht-22, 5 µM
[22] = target: Acetylcholinesterase (Electrophorus electricus) (UniProt O42275); experiment: Inhibition of electric eel AChE at 100 uM using ATC iodide substrate by DTNB based assay

SMILES	IC50 (Acetylcholinesterase; read-out: IC50) [µM]	Ratio IC50 [1]	IC50 (Cholinesterase; read-out: IC50) [µM]	other results
CN1C2=NCCCN2C(=O)c2cc(OC(=O)Nc3ccc(C(C)(C)C)cc3)ccc21	0.2	< 0.004	–	–
O=c1c2cc(O)ccc2nc2n1CCCN2	55.6	0.28	–	Activity (HT-22 [2]): inactive; IC50 (Acetylcholinesterase; read-out: pIC50 (converted)): 55 µM; Activity (HT-22 [3]): Toxic; inhibition [4]: 24%
O=c1c2cc(OCc3ccccc3)ccc2nc2n1CCCN2	19.3	0.19	–	inhibition [5]: 20%; IC50 (Acetylcholinesterase; read-out: pIC50 (converted)): 19.1 µM
COc1cccc(NC(=O)Oc2ccc3c(c2)C(=O)N2CCCN=C2N3C)c1	2.9	0.06	52.2	–
O=c1c2cc(O)ccc2nc2n1CCCN2Cc1ccccc1	–	–	–	inhibition [5]: 40%; Activity (HT-22 [6]): Non-toxic; Activity [7]: 1.56 equiv; Activity (HT-22 [8]): Active; inhibition [9]: 41%; Activity (HT-22 [3]): Toxic
COc1cccc(NC(=O)Oc2ccc3nc4n(c(=O)c3c2)CCCN4CCCN2CCCCC2)c1	7.3	16.2	0.45	IC50 (Cholinesterase; read-out: pIC50 (converted)): 25.7 µM
CN1CCCn2c1nc1ccc(OCc3ccccc3)cc1c2=O	15.6	0.21	81.7	–
CC(C)c1ccc(NC(=O)Oc2ccc3c(c2)C(=O)N2CCCN=C2N3C)cc1	0.0837	0.03	3.26	inhibition [10]: tde; Activity (HT-22 [2]): inactive; Activity (HT-22 [6]): Non-toxic; inhibition [11]: inactive; K [12]: 43.5 nM; inhibition [13]: inactive; inhibition [14]: Active; K [15]: 0.09 min⁻¹
CCCCNC(=O)Oc1ccc2nc3n(c(=O)c2c1)CCCN3Cc1ccccc1	–	–	–	inhibition [5]: 8%; inhibition [9]: 41%
COc1cccc(NC(=O)Oc2ccc3nc4n(c(=O)c3c2)CCCN4Cc2ccccc2)c1	–	–	–	inhibition [5]: 11%; inhibition [9]: 35%
CCCCNC(=O)Oc1ccc2nc3n(c(=O)c2c1)CCCN3C	16.3	0.37	44.3	–
CCCCCCCNC(=O)Oc1ccc2nc3n(c(=O)c2c1)CCCN3Cc1ccccc1	88.8	3.51	25.3	–
CC(C)c1ccc(NC(=O)Oc2ccc3nc4n(c(=O)c3c2)CCCN4CCCN2CCCCC2)cc1	0.78	3.1	0.25	–
CCCCNC(=O)Oc1ccc2c(c1)C(=O)N1CCCN=C1N2C	3.84	0.09	43.9	–
CC(C)c1ccc(NC(=O)Oc2ccc3nc4n(c(=O)c3c2)CCCN4)cc1	–	0.5	–	inhibition [5]: 19%; inhibition [9]: 34%
CN1CCCN2Cc3cc(O)ccc3N=C12	15.9	< 0.3	–	inhibition [5]: 53%; Activity (HT-22 [2]): inactive; Activity (HT-22 [6]): Non-toxic; Activity [7]: 1.34 equiv; Activity (HT-22 [16]): Active; Activity (HT-22 [17]): inactive
CCCCCCCNC(=O)Oc1ccc2nc3n(c(=O)c2c1)CCCN3CCCN1CCCCC1	7.95	322	0.0247	Activity (HT-22 [2]): inactive; Activity (HT-22 [6]): Non-toxic; inhibition [11]: inactive; inhibition [18]: tde; K [19]: 0.125 min⁻¹; K [20]: 1.3 nM

SMILES	IC50 (Acetylcholinesterase; read-out: IC50) [µM]	Ratio IC50 [1]	IC50 (Cholinesterase; read-out: IC50) [µM]	other results
CCCCCCCNC(=O)Oc1ccc2nc3n(c(=O)c2c1)CCCN3C	5.98	3.41	1.75	–
COc1cccc(NC(=O)Oc2ccc3nc4n(c(=O)c3c2)CCCN4C)c1	5.46	0.33	12.6	–
CCCCCCCNC(=O)Oc1ccc2c(c1)CN1CCCN(C)C1=N2	3.36	5.31	0.63	–
O=C1c2ccccc2NC2=NCCCN12	29.6	0.3	–	Activity (HT-22 [2]): inactive; Activity (HT-22 [21]): Toxic; inhibition [4]: 47%
CN1C2=NCCCN2C(=O)c2cc(OCc3ccccc3)ccc21	0.7	0.03	21.4	–
CCCCCCCNC(=O)Oc1ccc2c(c1)C(=O)N1CCCN=C1N2C	3.64	26.1	0.14	–
O=c1c2cc(OCc3ccccc3)ccc2nc2n1CCCN2Cc1ccccc1	–	–	–	inhibition [22]: 20%; inhibition [4]: 10%
CC(C)c1ccc(NC(=O)Oc2ccc3nc4n(c(=O)c3c2)CCCN4C)cc1	–	> 5.6	17.7	inhibition [22]: 50%
O=c1c2cc(OCc3ccccc3)ccc2nc2n1CCCN2CCCN1CCCCC1	1.31	1.6	0.81	IC50 (Acetylcholinesterase; read-out: pIC50 (converted)): 1.35 µM
CN1CCCN2Cc3cc(OCc4ccccc4)ccc3N=C12	0.826	0.2	4.17	–
CCCCNC(=O)Oc1ccc2nc3n(c(=O)c2c1)CCCN3CCCN1CCCCC1	6.91	6.35	1.1	–
O=c1c2cc(O)ccc2nc2n1CCCN2CCCN1CCCCC1	22.9	1	22.7	Activity (HT-22 [17]): inactive
CN1CCCn2c1nc1ccc(O)cc1c2=O	–	–	–	inhibition [5]: 9%; Activity (HT-22 [6]): Non-toxic; Activity [7]: 1.54 equiv; inhibition [9]: 61%; Activity (HT-22 [17]): Active
CC(C)c1ccc(NC(=O)Oc2ccc3nc4n(c(=O)c3c2)CCCN4Cc2ccccc2)cc1	–	–	–	inhibition [5]: 6%; inhibition [9]: 30%
CN1C2=NCCCN2C(=O)c2cc(O)ccc21	11.8	0.21	55.5	Activity (HT-22 [2]): inactive; Activity (HT-22 [6]): Non-toxic; Activity (HT-22 [17]): inactive
CCCCNC(=O)Oc1ccc2c(c1)CN1CCCN(C)C1=N2	3.13	2.31	1.34	IC50 (Cholinesterase; read-out: pIC50 (converted)): 3.89 µM
CNC(=O)Oc1ccc2c(c1)[C@]1(C)CCN(C)[C@@H]1N2C	–	–	–	K [12]: 34.3 nM; K [19]: 0.067 min⁻¹; K [20]: 41.1 nM; K [15]: 0.123 min⁻¹
